Assay results reported in US20240115545A1, “PHARMACEUTICAL COMPOSITION CONTAINING B-LAPACHONE AS ACTIVE INGREDIENT FOR PREVENTION OR TREATMENT OF CHOLESTATIC LIVER DISEASE” (CUROME BIOSCIENCES CO., LTD., priority 2020, published 2024).

What was measured:
[1] = test system: fibrosis-related genes; experiment: Real-time PCR of fibrosis-related genes in liver tissue, preventive β-lapachone in DDC mice (Example 2.3); format: in vivo; details: DDC-BL40 and DDC-BL80 vs DDC-vehicle, DDC 14 days
Experimental: DDC-induced cholestatic liver disease mouse animal models were prepared according to the method of Elisa Pose et al. by using 8-week-old C57BL/6 male mice (Samtako, Korea). Briefly, cholestatic liver disease was induced by feeding a standard rodent diet supplemented with 0.1% (w/w) DDC for 7 or 14 days. The 12-hour light and dark cycle was maintained and animals were allowed to free access to water. The standard rodent diet included medium wheat, wheat, corn, and corn gluten flour, and soybean oil (14% protein). All animal related procedures were reviewed and approved by the Institutional Animal Care and Use Committee of Korea Research Institute of Bioscience and Biotechnology (KRIBB), KRIBB-AEC-20165). To investigate the preventive effect of β-Lapachone (BL) on cholestatic liver disease, the mice were fed a diet with 0 (DDC-vehicle), 40 mg/kg (DDC-BL40) and 80 mg/kg (DDC-BL80) 3 days before DDC treatment (total 17 days) and, after 3 days, were fed a diet with DDC (total 14 days). After 14 days of DDC treatment, the mice were sacrificed and the liver was harvested including the portal vein (PV) and bile ducts of the mice, and the surrounding lesions were confirmed by H&E, and are shown in FIG. 1. The expression of the factors in the liver tissue obtained from the cholestatic liver disease mouse animal models of Example 2.1 was performed by a real-time polymerase chain reaction was performed according to the following procedure. Total RNA from liver samples was extracted using Tri-RNA Reagent (Favrogen BIOTECH CORP, Nong-Ke Rd, Taiwan) according to the procedure presented by Favrogen, and was reverse transcribed into cDNA by using PrimeScript™ RT reagent Kit with gDNA Eraser (TAKARA Korea Biomedical Inc, Seoul, 08506, Korea). Quantitative PCR was performed using TB Green™ Premix Ex Taq™ II (Tli RNaseH Plus), ROX plus (TAKARA Korea Biomedical Inc, Seoul, 08506, Korea) and QuantStudio 5 Real-Time PCR Instrument (Thermo Fisher Scientific, Waltham, MA, USA).

[2] = test system: Poly I:C-induced cholestatic liver disease animal models; experiment: Blood AST, ALT, ALP in Poly I:C-induced primary biliary cirrhosis mice (Example 5); format: in vivo
Experimental: Of cholestatic liver diseases, primary biliary cirrhosis (PBC) may be introduced to a similar state by using a viral RNA mimic and the Toll-like receptor polyinosinic-polycytidylic acid (Poly I:C). After 8-week-old C57BL/6 male mice (Samtako, Korea) were divided into each group (=6), each experimental group excluding a normal group was intraperitoneally administered 5 mg/kg Poly I:C twice a week for 8 weeks. Thereafter, the mice were fed a diet with control (vehicle), β-lapachone 40 mg/kg, β-lapachone 80 mg/kg, and positive control ursodeoxycholic acid 100 mg/kg and obeticholic acid 30 mg/kg for 8 weeks. On the 16th week of treatment, the experiment was ended, and the mice were sacrificed and then the blood was collected from the heart.

[3] = test system: DSS-induced inflammatory bowel disease mice; experiment: Survival rate, body weight and colitis score in DSS-induced acute colitis mice (Example 6.1); format: in vivo; details: for mice died: 14th day of the experiment (DSS alone 70%)
Experimental: Dextran sodium sulfate (DSS)-induced acute colitis mouse models were constructed using 8-week-old C57BL/6 female mice (Samtako, Korea).
After 8-week-old C57BL/6 female mice (Samtako, Korea) were divided into each group (=10), each experimental group was fed a standard rodent diet supplemented with 3% (w/w) DSS in drinking water for the first 5 days to induce acute colitis and orally administered control (vehicle), β-lapachone 40 mg/kg, and β-lapachone 80 mg/kg for 14 days.
All animal-related procedures were discussed and approved by the Institutional Animal Care and Use Committee of the Hanyang University. The survival rate over time is shown in FIG. 9, and the change rate in body weight of mice in each experimental group was measured and shown in FIG. 10A. The fecal occult bleeding per rectum, total bleeding loss, and fecal concentration were measured daily.

[4] = test system: fibrosis-related genes; experiment: mRNA levels of fibrosis-related genes in liver tissue (Example 3.2); format: in vivo, mice; details: β-lapachone with DDC in diet, 7 days; depending on the concentration
Experimental: After 8-week-old C57BL/6 male mice (Samtako, Korea) were divided into each group (=6), the mice were fed a diet with normal (vehicle), control (DDC), DDC+β-lapachone 20 mg/kg, DDC+β-lapachone 40 mg/kg, DDC+β-lapachone 80 mg/kg, DDC+β-lapachone 100 mg/kg, and positive control DDC+ursodeoxycholic acid 100 mg/kg, and DDC+obeticholic acid 30 mg/kg (total 7 days). After 7 days of treatment, the mice were sacrificed and then the blood was collected from the heart. Thereafter, the levels of alanine aminotransferase (ALT), aspartate aminotransferase (AST), alkaline phosphatase (ALP), and bilirubin, which are blood indexes, were analyzed, and shown in FIG. 4.
After the cholestatic liver disease mouse animal models in Example 3.1 were sacrificed and the liver tissue was harvested therefrom, the mRNA levels of fibrosis-related genes were measured by a method similar to the method in Example 2.3.
In the cholestatic liver disease mouse models, the bile ducts were damaged and fibrosis was induced, by DDC, and accordingly, the transcriptional levels of collagen type 1 alpha 1 (Co|1α1), transforming growth factor beta 1 (TGF-β1), and collagen type I alpha 2 (Co|1α2), which are important factors in the development of fibrosis, were investigated, and the results are shown in FIG. 5.

[5] = β-lapachone 40, 80 mg/kg in diet for 8 weeks after 8 weeks Poly I:C

## CC1(C)CCC2=C(O1)c1ccccc1C(=O)C2=O [β-lapachone]
[1]
  transcriptional level of Co|1α1 in liver: significantly reduced
  transcriptional level of Co|4α1 in liver: significantly reduced
  transcriptional level of TGF-β1 in liver: significantly reduced
  transcriptional level of fibronectin in liver: significantly reduced
  transcriptional level of α-SMA in liver: significantly reduced
[2]; vs ursodeoxycholic acid 100 mg/kg and obeticholic acid 30 mg/kg, 8 weeks
  effect on AST, ALT, ALP compared with comparative substances: excellent effect compared with the comparative substances ursodeoxycholic acid (UDCA) and obeticholic acid (OCA)
[2]; [5]
  ALP in the blood increased by Poly I:C: inhibited
  ALT in the blood increased by Poly I:C: inhibited
  AST in the blood increased by Poly I:C: inhibited
[3]; 40 mg/kg orally for 14 days
  mice died: 50%
[3]; 80 mg/kg orally (DSS alone reduced to 75% on Day 8)
  body weight recovered, relative to initial body weight: up to 90%
[3]; 80 mg/kg orally for 14 days
  mice died: 20%
[3]; 40 and 80 mg/kg orally, 14 days
  colitis score: reduced depending on the treatment concentration
[3]; groups treated with β-lapachone 40 and 80 mg/kg orally
  body weight reduction by DSS: inhibited
[4]
  transcriptional level of Co|1α1 in liver: inhibited
  transcriptional level of Co|1α2 in liver: inhibited
  transcriptional level of TGF-β1 in liver: inhibited
